Source: PubChem BioAssay (NCI)
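Each compound was tested at five concentrations against cells in 96-well plates for 48 hours. TGI is the concentration that stops growth completely.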

What was measured:
Assay in all cases: inhibition of tumour cell growth, NCI panel, 48 h
A549 NSCLC = tested on: A549 NSCLC
ACHN renal = tested on: ACHN renal
COLO 205 colon = tested on: COLO 205 colon
K-562 leukemia = tested on: K-562 leukemia
MDA-N = tested on: MDA-N
NCI-H23 lung = tested on: NCI-H23 lung
NCI/ADR-RES ovarian = tested on: NCI/ADR-RES ovarian
SF-295 CNS = tested on: SF-295 CNS
SK-MEL-28 melanoma = tested on: SK-MEL-28 melanoma
SK-MEL-5 melanoma = tested on: SK-MEL-5 melanoma
SW-620 colon = tested on: SW-620 colon
UO-31 renal = tested on: UO-31 renal

Row | Structure (SMILES) | TGI (A549 NSCLC) [µM] | TGI (ACHN renal) [µM] | TGI (COLO 205 colon) [µM] | TGI (K-562 leukemia) [µM] | TGI (MDA-N) [µM] | TGI (NCI-H23 lung) [µM] | TGI (NCI/ADR-RES ovarian) [µM] | TGI (SF-295 CNS) [µM] | TGI (SK-MEL-28 melanoma) [µM] | TGI (SK-MEL-5 melanoma) [µM] | TGI (SW-620 colon) [µM] | TGI (UO-31 renal) [µM]
1 | CC1NC(/C(=C/c2ccccc2O)NC(=O)c2ccccc2)OC1=O (stereo not drawn) | > 50 | > 50 | > 50 | > 50 | > 50 | > 50 | > 50 | > 50 | > 50 | > 50 | > 50 | > 50
2 | Cc1ccc(S(=O)(=O)NNC(=S)Nc2cccc3ccccc23)cc1 | > 100 | 79.9 | > 100 | > 100 | > 100 | > 100 | > 100 | > 100 | > 100 | 33.1 | > 100 | > 100
3 | CC1[C@@H](OCc2ccccc2)COC(=O)N1Cc1ccccc1 (stereo partly drawn) | > 100 | > 100 | > 100 | > 100 | > 100 | > 100 | > 100 | > 100 | > 100 | > 100 | > 100 | > 100
4 | CN(C)CCNc1ccc2c(=O)n(CCN(C)C)c(=O)n3c4ccc(N)cc4c(=O)c1c23 | 0.599 | 0.734 | 1.26 | 0.0358 | 0.219 | 0.215 | 2.28 | 1.07 | 0.819 | 1.37 | 0.637 | 0.346
5 | CC1C[C@]2(C)C(=S)Nc3ccccc3[C@@H]2Nc2ccccc21 (stereo partly drawn) | 37.8 | 39.5 | 33.8 | > 100 | 37.4 | 33.9 | 36.6 | 37.9 | 12.7 | 31.7 | 55.7 | 32.8
6 | O=[N+]([O-])c1cccc2nccc(NCC(O)CO)c12 (stereo not drawn) | 36.4 | 45.2 | 33.5 | > 93.3 | 31.8 | 43.1 | 73.3 | 53.7 | 34 | 25.8 | 36.1 | 37.2
7 | CC(=O)CCC[C@@H](C)[C@@H]1O[C@H]([C@@]2(C)CCC(=O)O2)C[C@H]2C(CSc3ccccc3)C(=O)O[C@@H]12 (stereo partly drawn) | 44.1 | 28.9 | 31.4 | > 100 | 42.2 | 49.3 | 43.7 | > 66 | 41.7 | > 54.3 | 28.8 | 31.1
8 | CNC(=O)c1n[nH][nH]c1=O | > 100 | > 100 | > 100 | > 100 | > 100 | > 100 | > 100 | > 100 | > 100 | > 100 | > 100 | > 100
9 | COC1OC(CO)C(O)C(OC(=O)c2cc(O)c(O)c(O)c2)C1OC(=O)c1cc(O)c(O)c(O)c1 (stereo not drawn) | > 100 | > 100 | > 100 | > 100 | 55.7 | > 100 | > 100 | 42.1 | > 100 | > 100 | > 100 | > 100
10 | CC(=O)O[C@H]1C(=O)[C@@]2(C)[C@H]([C@H](OC(=O)C3CCCCC3)[C@]3(O)C[C@H](OC(=O)[C@H](O)[C@@H](NC(=O)C4CCCCC4)C4CCCCC4)C(C)=C1C3(C)C)[C@]1(OC(C)=O)CO[C@@H]1C[C@@H]2O | 20.9 | 12.4 | 0.0266 | 8.96 | 0.00852 | 0.438 | 5.68 | 0.176 | 8.55 | 1.12 | 25 | 6.23
11 | CCCCCc1c2nc(c(CCCCC)c3ccc([nH]3)c(CCCCC)c3ccc([nH]3)c(CCCCC)c3nc1C=C3)C=C2 | > 100 | > 100 | > 100 | > 100 | > 100 | > 100 | > 100 | > 100 | > 100 | > 100 | > 100 | > 100
12 | CC1(C)C(=O)N=C(N)N1C(=O)OCc1ccccc1 | > 100 | > 100 | > 100 | > 100 | > 100 | > 100 | > 100 | > 100 | > 100 | > 100 | > 100 | > 100
13 | O=C1/C(=C\c2cccc(Oc3ccccc3)c2)SC(c2ccccc2)N1c1ccc(Cl)cc1 (stereo not drawn) | > 100 | > 100 | > 80.9 | > 90.8 | > 87.9 | 98.7 | > 100 | > 100 | > 100 | > 41.7 | > 100 | > 100
14 | O=C(Nc1nc(C23CC4CC(CC(C4)C2)C3)cs1)c1cc2cc(Br)cc(Br)c2oc1=O | > 100 | > 100 | > 100 | > 100 | > 100 | > 100 | > 100 | > 100 | > 100 | > 100 | > 100 | > 100
